Assay results as given in patent US11013720B2, “Ganetespib-containing particle, pharmaceutical composition comprising the same, and their use in anticancer treatment” (NATIONAL CHIAO TUNG UNIVERSITY, priority 2019, dated 2021).
Converted amounts (≈) assume the structure as drawn.

Assays:
A549 cell line = experiment: In vitro anticancer effect against A549 cell line (MTT assay); assay type: cell-based; details: Homo sapiens
Description: (§1) The A549 cells described in section 1 of Experimental Materials were placed in a 24-well culture plate at 1×10^4 cells/well, followed by cultivation in DMEM supplemented with 10% FBS at 37° C. and 5% CO2. The A549 cells in the wells were respectively treated with the free ganetespib test solutions and the CHC-ganetespib test solutions. Specifically, 200 μL of a respective test solution was added into a corresponding well containing the A549 cells. The A549 cells which were not treated with the free ganetespib test solutions and the CHC-ganetespib test solutions served as a normal control. After the treatment, cultivation was conducted for 48 hours at 37° C. and 5% CO2.
(§2) The respective resulting culture was subjected to washing twice with PBS after removal of the liquid in the well, and was subjected to determination of cell viability by virtue of the 3-(4,5-dimethylthiazol-2-yl)-2,5-diphenyltetrazoli-umbromide (MTT) assay. Specifically, a suitable amount of a MTT solution (having a MTT concentration of 1.9 mg/mL) was added to the respective culture, followed by incubation for 4 hours. The liquid in the well was removed, and dimethylsulfoxide (DMSO) was added into the well to dissolve formazan dye. Absorbance of the mixture in the well at 450 nm (0D450) was measured using a microplate reader (Tecan Sunrise, Switzerland). The cell viability (%) was calculated by substituting the absorbance into the following equation (2): D=(E/F)×100 (2) • D=cell viability (%) • E=OD450 of respective culture • F=OD450 of normal control
(§3) IC50 (half maximal inhibitory concentration) of the free ganetespib and the CHC-ganetespib particle agasint A549 cell line was determined based on the free ganetespib concentrations and the CHC-ganetespib particle concentrations, respectively, as well as the cell viability resulting from such concentrations.

H1299 cell line = experiment: In vitro anticancer effect against H1299 cell line (MTT assay); assay type: cell-based; details: Homo sapiens, NCI-H1299
Description: as §1, §2, §3
The in vitro anticancer effect of the free ganetespib and the CHC-ganetespib particle agasint H1299 cell line was determined generally according to the method described in section B of this example, except that the H1299 cells described in section 1 of Experimental Materials were placed in a 24-well culture plate at 5×10^4 cells/well, followed by cultivation in RPMI medium supplemented with 10% FBS.

Molecule `CC(C)c1cc(-c2nnc(O)n2-c2ccc3c(ccn3C)c2)c(O)cc1O` [Free ganetespib, 4-[5-hydroxy-4-(1-methyl-1H-indol-5-yl)-4H-1,2,4-triazol-3-yl]-6-(propan-2-yl)benzene-1,3-diol] has a viability at 0.0015625 µg/mL (A549 cell line; A549, 1.5625 ng/mL, 48 hours) of 98%, a viability at 0.003125 µg/mL (A549 cell line; A549, 3.125 ng/mL, 48 hours) of 70% and a viability at 0.00625 µg/mL (A549 cell line; A549, 6.25 ng/mL, 48 hours) of 52%. For the same molecule, the viability at 0.0125 µg/mL (A549 cell line; A549, 12.5 ng/mL, 48 hours) was 40%, the viability at 0.025 µg/mL (A549 cell line; A549, 25 ng/mL, 48 hours) was 30% and the IC50 (A549 cell line; A549, 48 hours, MTT) was 8.8 ng/mL (≈ 0.0241 µM). For the same molecule, the viability at 0.0015625 µg/mL (H1299 cell line; H1299, 1.5625 ng/mL, 48 hours) was 93%, the viability at 0.003125 µg/mL (H1299 cell line; H1299, 3.125 ng/mL, 48 hours) was 85% and the viability at 0.00625 µg/mL (H1299 cell line; H1299, 6.25 ng/mL, 48 hours) was 55%. For the same molecule, the viability at 0.01 µg/mL (H1299 cell line; H1299, 10 ng/mL, 48 hours) was 48%, the viability at 0.02 µg/mL (H1299 cell line; H1299, 20 ng/mL, 48 hours) was 23% and the IC50 (H1299 cell line; H1299, 48 hours, MTT) was 10.3 ng/mL (≈ 0.0283 µM).
